# Experimental data published in PubChem BioAssay AID608 (Sanford-Burnham Center for Chemical Genomics, 2007).
# Active and inactive are the calls of the source. No rule for the calls is given here.
# Target: Peptidyl-prolyl cis-trans isomerase FKBP1A (Homo sapiens) (UniProt P62942)
# Experiment: FKBP12 binders, biophysical, NMR detection (AID 608)
# Conditions: NMR binding, purified FKBP12
# Sequence of Peptidyl-prolyl cis-trans isomerase FKBP1A (Homo sapiens) (P62942 whole entry, looked up): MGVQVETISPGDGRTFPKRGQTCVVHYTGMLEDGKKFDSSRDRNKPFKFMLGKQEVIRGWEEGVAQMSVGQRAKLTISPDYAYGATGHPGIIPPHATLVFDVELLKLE
row,SMILES,Kd
1,COC(=O)c1noc(-c2ccc(OC)cc2)n1,> 4 mM (inactive)
2,CS(C)=C1C(=O)NC(=O)N(c2ccccc2)C1=O,> 4 mM (inactive)
3,COc1ccc([C@@H]2CC(=O)c3c(O)cc(O[C@@H]4O[C@H](CO[C@H]5O[C@@H](C)[C@H](O)[C@@H](O)[C@H]5O)[C@@H](O)[C@H](O)[C@H]4O)cc3O2)cc1O,> 4 mM (inactive)
4,C=C[C@H]1CN2CC[C@H]1C[C@@H]2[C@@H](O)c1ccnc2ccc(OC)cc12,> 4 mM (inactive)
5,O=c1cccc2n1CC1CC2CN2CCCC[C@@H]12 (stereo partly drawn),> 4 mM (inactive)
6,COc1ccc(NC(=O)C2CC(=O)N=C(N)S2)cc1 (stereo not drawn),> 4 mM (inactive)
7,CCN1CCn2c1nc(N1CCOCC1)nc2=O,> 4 mM (inactive)
8,O=C(c1ccco1)N1CCNCC1,> 4 mM (inactive)
9,Cc1oc(S(=O)(=O)N2CCCCC2)cc1C(=O)O,> 4 mM (inactive)
10,Cc1ccc(SCC(=O)N2CC(C)OC(C)C2)cc1 (stereo not drawn),inactive
11,CC(=O)OCC(=O)[C@@]1(O)CCC2C3CC[C@@H]4C[C@H](OC(C)=O)CC[C@]4(C)C3C(=O)C[C@@]21C (stereo partly drawn),> 4 mM (inactive)
12,Nc1nc2ccc(C(=O)O)cc2s1,> 4 mM (inactive)
13,CNC(=O)CC1Sc2ccccc2NC1=O (stereo not drawn),> 4 mM (inactive)
14,CC(=O)NCCc1cc2ccc(C)c(C)c2[nH]c1=O,> 4 mM (inactive)
15,Cc1noc(C)c1C(=O)N1CCc2ccccc2C1,> 4 mM (inactive)
16,CCOC(=O)C1C(C=C(C)C)C1(C)C (stereo not drawn),> 4 mM (inactive)
17,NC(=O)CSc1nnc2ccc(-c3ccccn3)nn12,> 4 mM (inactive)
18,Cn1nnc2cc(C(=O)NC3=NCCS3)ccc21,> 4 mM (inactive)
19,CC1CN(C(=O)c2sc3ccccc3c2Cl)CC(C)O1 (stereo not drawn),inactive
20,COc1ccccc1CNc1nc2nc(C)cc(=O)n2[nH]1,> 4 mM (inactive)
21,Cc1cc(OCC(=O)N2CC(C)OC(C)C2)cc(C)c1Cl (stereo not drawn),> 4 mM (inactive)
22,Nc1nnc(SCc2cccnc2)s1,> 4 mM (inactive)
23,COc1ccc([C@@H](C)C(=O)c2ccc(O)cc2O)cc1,> 4 mM (inactive)

row,SMILES,Kd
1,COc1ncccc1N,> 4 mM (inactive)
2,CC1=C(CCC(=O)O)c2cc3nc(cc4[nH]c(cc5[nH]c(cc1n2)c(C)c5C(C)O)c(C)c4C(C)O)C(C)=C3CCC(=O)O (stereo not drawn),> 4 mM (inactive)
3,Cc1ccc(-n2ncc(C#N)c2/N=C/N(C)C)cc1,> 4 mM (inactive)
4,Cc1ccc2nc(SCC(=O)O)nc(C)c2c1,> 4 mM (inactive)
5,O=C(NCN1CCOCC1)c1cccnc1,> 4 mM (inactive)
6,CN(C)c1oc(-c2ccccc2Cl)nc1C#N,> 4 mM (inactive)
7,O=C(O)C1Cc2ccccc2O1 (stereo not drawn),> 4 mM (inactive)
8,CC1CN(C2=NCCN2)CC(C)O1 (stereo not drawn),> 4 mM (inactive)
9,NC(=O)NC1NC(=O)NC1=O (stereo not drawn),> 4 mM (inactive)
10,O=c1cc(-c2ccccc2)oc2c(O)c(O)ccc12,> 4 mM (inactive)
11,NC(=O)c1cccc(Cl)n1,> 4 mM (inactive)
12,COC(=O)[C@]1(C)CCC[C@]2(C)c3ccc(C(C)C)cc3C(=O)CC12 (stereo partly drawn),> 4 mM (inactive)
13,NC(=O)Cn1cnc(-c2ccc(F)cc2)c1,> 4 mM (inactive)
14,C[C@@H]1O[C@@H](O[C@H]2C[C@@H](O)[C@]3(CO)C4C(CC[C@]3(O)C2)[C@@]2(O)CC[C@H](C3=CC(=O)OC3)[C@@]2(C)C[C@H]4O)[C@H](O)[C@H](O)[C@H]1O (stereo partly drawn),> 4 mM (inactive)
15,COc1ccc(C(=O)NNC(=S)NC(C)=O)cc1,> 4 mM (inactive)
16,CC(N)C(=O)c1ccco1 (stereo not drawn),> 4 mM (inactive)
17,COc1cccc(S(=O)(=O)Nc2cccnc2)c1,> 4 mM (inactive)
18,C[C@]12CCC3C(CC[C@H]4C[C@@H](O)CC[C@]34C)C1CCC2=O (stereo partly drawn),> 4 mM (inactive)
19,O=C(O)c1cc2ccccc2o1,> 4 mM (inactive)
20,O=C1C=CC2=C3c4cc(O)c(O)cc4C[C@@]3(O)COC2=C1,> 4 mM (inactive)
21,C/C1=C\CCC(=O)C2CC(C)(C)C2CC1 (stereo not drawn),> 4 mM (inactive)
22,COC(CC(=O)O)c1nc2ccccc2s1 (stereo not drawn),> 4 mM (inactive)
23,Cn1c(CO)nc2cc(N)ccc21,> 4 mM (inactive)

row,SMILES,Kd
1,CC(C)=CCc1c(O)cc2oc(C)cc(=O)c2c1O,> 4 mM (inactive)
2,CN1CCC=C(C(=O)O)C1,> 4 mM (inactive)
3,Cn1c(CO)nc2ccccc21,> 4 mM (inactive)
4,Cc1ccc(N2C(=O)CC(Sc3ncn[nH]3)C2=O)cc1 (stereo not drawn),> 4 mM (inactive)
5,O=S(=O)(N1CCOCC1)n1c(Cc2ccccc2)nc2ccccc21,inactive
6,O=C(c1sc2cc(Cl)ccc2c1Cl)N1CCOCC1,inactive
7,Nc1ccc2c(c1)OCCO2,> 4 mM (inactive)
8,CCC(C)C(=O)O[C@H]1[C@H](O)C2C(CN3CC(C)CCC3[C@@]2(C)O)C2C[C@]34O[C@]5(O)C(OC(=O)C(C)(O)C(C)O)CC[C@@]3(C)C5C(OC(C)=O)[C@@H](OC(C)=O)C4[C@@]21O (stereo partly drawn),> 4 mM (inactive)
9,C=C1C2CC[C@@]3(C)[C@H](c4ccoc4)OC(=O)C[C@]13O[C@H]1CC(O)C(C)(C)C(CC(=O)OC)[C@@]21C (stereo partly drawn),> 4 mM (inactive)
10,NCc1ccc(-c2cccs2)s1,> 4 mM (inactive)
11,N#CC(O[C@@H]1O[C@H](CO[C@@H]2O[C@H](CO)[C@@H](O)[C@H](O)[C@H]2O)[C@@H](O)[C@H](O)[C@H]1O)c1ccccc1 (stereo partly drawn),> 4 mM (inactive)
12,CC(C)=CCc1c2c(c3occ(-c4ccc(O)cc4)c(=O)c3c1O)C=CC(C)(C)O2,> 4 mM (inactive)
13,Cc1ccccc1NC(=O)c1ocnc1C,> 4 mM (inactive)
14,c1ccc(-c2csc3ncn4nnnc4c23)cc1,> 4 mM (inactive)
15,CC(C)n1nnc2cc(C(=O)O)ccc21,> 4 mM (inactive)
16,C=CCNC(=O)c1ccc(Cl)cc1Cl,> 4 mM (inactive)
17,Nc1cc(N)nc(SCc2ccccc2)n1,> 4 mM (inactive)
18,Cc1cc(C)nc(/N=C(/N)Nc2cccc(F)c2)n1,> 4 mM (inactive)
19,C=C[C@@]1(C)CC(=O)[C@@]2(O)[C@](C)(O1)[C@@H](OC(C)=O)[C@@H](O)C1C(C)(C)CC[C@H](O)[C@@]12C (stereo partly drawn),> 4 mM (inactive)
20,CCC1C(=O)OCC1Cc1cncn1C (stereo not drawn),> 4 mM (inactive)
21,Cc1cc(NC(=O)c2c(F)c(F)c(F)c(F)c2F)no1,> 4 mM (inactive)
22,Cc1n[nH]c(C)c1-c1ccccc1C(=O)O,> 4 mM (inactive)
23,CC(=O)NC(=S)Nc1ccc(N(C)C(C)=O)cc1,> 4 mM (inactive)

row,SMILES,Kd
1,CC(=O)c1ccc(CC2SC(N)=NC2=O)cc1 (stereo not drawn),> 4 mM (inactive)
2,CC(C)c1ccc(SCC(=O)N2CCOCC2C(=O)OCCCc2cccnc2)cc1 (stereo not drawn),0.0056 mM
3,NCc1oc(-c2ccccc2)cc1C(=O)O,> 4 mM (inactive)
4,COc1ccc(CN2CCC(O)CC2)c(O)c1,> 4 mM (inactive)
5,CN(C)c1nc(N)nc(Cn2ccnc2)n1,> 4 mM (inactive)
6,CC(=O)O[C@H]1CC[C@@]2(C)C(=CCC3C2CC[C@@]2(C)C3CC[C@@H]2C(C)CCCC(C)C)C1 (stereo partly drawn),> 4 mM (inactive)
7,N#Cc1cccc(Cn2nnc(-c3ccccc3)n2)c1,> 4 mM (inactive)
8,CC(=O)c1c(O)n(C)c(=S)n(C)c1=O,> 4 mM (inactive)
9,NC1=NN(c2ccccc2)C(=O)C1,> 4 mM (inactive)
10,Cc1nn(-c2ccccc2)nc1C(=O)O,> 4 mM (inactive)
11,OC12CC3CC(CC(C3)C1)C2,> 4 mM (inactive)
12,O=C(c1ccccc1)c1cncc(Br)c1,> 4 mM (inactive)
13,OCCNC(=S)Nc1ccccc1,> 4 mM (inactive)
14,COc1cc2cc3c4cc(OC)c(OC)cc4cc[n+]3c(C)c2cc1OC,> 4 mM (inactive)
15,CC(=O)Nc1ccc2c(c1)CCC2=O,> 4 mM (inactive)
16,CCOc1ccc(-c2n[nH]c(=S)n2C)cc1,> 4 mM (inactive)
17,Nc1ccc(-n2cccc2)cc1,> 4 mM (inactive)
18,Cc1cc(NC(=O)c2cccc(S(C)(=O)=O)c2)no1,> 4 mM (inactive)
19,O=C(CCc1n[nH]c(=O)[nH]c1=O)NCc1ccccc1,> 4 mM (inactive)
20,O=C(O)CCS(=O)(=O)c1ccccc1,> 4 mM (inactive)
21,CCC(=O)NC(=S)Nc1ccc(O)cc1,> 4 mM (inactive)
22,OCC1CCCN2CCCCC12 (stereo not drawn),> 4 mM (inactive)
23,O=C(Nc1ccc2c(c1)OCCO2)c1ccncc1,> 4 mM (inactive)

row,SMILES,Kd
1,COc1ccc2c(c1)=C(c1sc(N)nc1O)C(=O)N=2,> 4 mM (inactive)
2,Cc1ccccc1C(=O)Nn1cnnc1,> 4 mM (inactive)
3,CSc1ccc2nnc(-c3cccnc3)n2n1,> 4 mM (inactive)
4,CC(C)=CCOc1c2occc2cc2ccc(=O)oc12,> 4 mM (inactive)
5,COc1cc(OC)c2c(=O)c(-c3ccccc3)coc2c1,> 4 mM (inactive)
6,C=C1CCC2C(CC2(C)C)C(=C)CC/C1=N/O (stereo not drawn),> 4 mM (inactive)
7,CNS(=O)(=O)c1cccs1,> 4 mM (inactive)
8,Nc1ccc2sccc2c1,> 4 mM (inactive)
9,CC(C)=CCCC1(C)C=Cc2c(O)c3c(c(CC=C(C)C)c2O1)OC12C(=CC4CC1C(C)(C)OC2(C/C=C(/C)C(=O)O)C4O)C3=O (stereo not drawn),> 4 mM (inactive)
10,CS(=O)(=O)N1CCN(C(=O)Cc2cccs2)CC1,> 4 mM (inactive)
11,CC(=O)c1c(C)n([O-])c2ccccc2[n+]1=O,> 4 mM (inactive)
12,O=C1C2C3C=CC(C3)C2C(=O)N1c1ccccn1 (stereo not drawn),> 4 mM (inactive)
13,Cn1cnnc1Sc1ncnc(N)c1[N+](=O)[O-],> 4 mM (inactive)
14,COc1ccc(C2(CN)CCOCC2)cc1OC,> 4 mM (inactive)
15,Nc1cc(F)ccc1-n1ccnc1,> 4 mM (inactive)
16,CNC(=S)Nc1cccc(C(=O)O)c1,> 4 mM (inactive)
17,NC(N)=NOCC[C@H](N)C(=O)O,> 4 mM (inactive)
18,O=c1cc(-c2ccc(O)cc2)oc2cc(O[C@@H]3O[C@H](CO)[C@@H](O)[C@H](O)[C@H]3O[C@@H]3OC[C@](O)(CO)[C@H]3O)cc(O)c12,> 4 mM (inactive)
19,NCc1n[nH]c(=O)c2ccccc12,> 4 mM (inactive)
20,COc1ccc(/C=C2/NC(=S)NC2=O)cc1,> 4 mM (inactive)
21,CCOC(=O)c1c(C)cc(O)cc1O,> 4 mM (inactive)
